This is an account of results in PubChem BioAssay AID1259411 (Chemical Carcinogenesis Research Information System (CCRIS), 2018).

The series concerns rodent carcinogenicity bioassays, tumor incidence. The series is described as follows: CCRIS carcinogenicity studies. Put shortly:
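NCI-built, expert-reviewed records of carcinogenicity and related test outcomes (mutagenicity, tumor promotion/inhibition) compiled from published and report sources, historical span 1985-2011, not updated.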

Activity calls are given as the source filed them. How the calls were made is not given here.

As to `C=C(C)C(N)=O`, the carcinogen call runs as follows: (Species: MOUSE, Strain/Sex: DDY, Route: INTRAPERITONEAL, Dose: 0, 2.35 MMOL/KG 1/2 D FOR 5 DOSES (STUDY DURATION: 6 MO), Tumor Site: Type of Lesion: LUNG: ADENOMA) “active; positive”; (Species: MOUSE, Strain/Sex: DDY, Route: INTRAPERITONEAL, Dose: 0, 2.35 MMOL/KG 1/D FOR 5 D (STUDY DURATION: 6 MO), Tumor Site: Type of Lesion: LUNG: ADENOMA) “active; positive”.
With `CC(O)COC(C)(C)C` (stereo unspecified), the carcinogen call runs as follows: (Species: MOUSE, Strain/Sex: B6C3F1/FEMALE, Route: INHALATION, Dose: 0, 75, 300, 1200 PPM 6 HR/D, 5 D/WK FOR 104 WKS, Dose: 0, 75, 300, 1200 PPM 6 HR/D, 5 D/WK FOR 104 WKS, Tumor Site: Type of Lesion: LIVER: HEPATOCELLULAR ADENOMA, CARCINOMA OR HEPATOBLASTOMA) “active; positive”; (Species: MOUSE, Strain/Sex: B6C3F1/MALE, Route: INHALATION, Dose: 0, 75, 300, 1200 PPM 6 HR/D, 5 D/WK FOR 104 WKS, Dose: 0, 75, 300, 1200 PPM 6 HR/D, 5 D/WK FOR 104 WKS, Tumor Site: Type of Lesion: LIVER: HEPATOCELLULAR ADENOMA, CARCINOMA OR HEPATOBLASTOMA) “active; positive”; (Species: RAT, Strain/Sex: F344/N/FEMALE, Route: INHALATION, Dose: 0, 75, 300, 1200 PPM 6 HR/D, 5 D/WK FOR 104 WKS, Dose: 0, 75, 300, 1200 PPM 6 HR/D, 5 D/WK FOR 104 WKS) “inactive; negative”; (Species: RAT, Strain/Sex: F344/N/MALE, Route: INHALATION, Dose: 0, 75, 300, 1200 PPM 6 HR/D, 5 D/WK FOR 104 WKS, Dose: 0, 75, 300, 1200 PPM 6 HR/D, 5 D/WK FOR 104 WKS, Tumor Site: Type of Lesion: NO STATISTICALLY SIGNIFICANT INCREASE IN TUMORS BUT KIDNEY TUBULE TUMORS INCREASED SLIGHTLY) “equivocal”.
Turning to `S=c1[nH]c2ccccc2s1`, the carcinogen call reads like this: (Species: MOUSE, Strain/Sex: B6C3F1/FEMALE, Route: GAVAGE, Dose: 0, 375, 750 MG/KG IN CORN OIL 5D/WK FOR 103 WK (STUDY DURATION: 104 WK), Dose: 0, 375, 750 MG/KG IN CORN OIL 5D/WK FOR 103 WK (STUDY DURATION: 104 WK), Tumor Site: Type of Lesion: LIVER: HEPATOCELLULAR ADENOMA OR CARCINOMA) “equivocal”; (Species: MOUSE, Strain/Sex: B6C3F1/MALE, Route: GAVAGE, Dose: 0, 375, 750 MG/KG IN CORN OIL 5D/WK FOR 103 WK (STUDY DURATION: 104 WK), Dose: 0, 375, 750 MG/KG IN CORN OIL 5D/WK FOR 103 WK (STUDY DURATION: 104 WK)) “inactive; negative”; (Species: RAT, Strain/Sex: F344/FEMALE, Route: GAVAGE, Dose: 0, 188, 375 MG/KG IN CORN OIL 5D/WK FOR 103 WK (STUDY DURATION: 105 WK), Dose: 0, 188, 375 MG/KG IN CORN OIL 5D/WK FOR 103 WK (STUDY DURATION: 105 WK), Tumor Site: Type of Lesion: PITUITARY GLAND: ADENOMA, PITUITARY GLAND: ADENOMA OR ADENOCARCINOMA, ADRENAL GLAND: PHEOCHROMOCYTOMA, Tumor Site: Type of Lesion: PITUITARY GLAND: ADENOMA, PITUITARY GLAND: ADENOMA OR ADENOCARCINOMA, ADRENAL GLAND: PHEOCHROMOCYTOMA) “active; positive”; (Species: RAT, Strain/Sex: F344/MALE, Route: GAVAGE, Dose: 0, 375, 750 MG/KG IN CORN OIL 5D/WK FOR 103 WK (STUDY DURATION: 105 WK), Dose: 0, 375, 750 MG/KG IN CORN OIL 5D/WK FOR 103 WK (STUDY DURATION: 105 WK), Tumor Site: Type of Lesion: HEMATOPOIETIC SYSTEM: MONONUCLEAR CELL LEUKEMIA, PANCREAS: ACINAR CELL ADENOMA) “active; positive”.
`CNNC`: the carcinogen call by setting is: (Species: HAMSTER, Route: INTRAMUSCULAR, Tumor Site: Type of Lesion: STOMACH, LIVER, INTESTINES, Tumor Site: Type of Lesion: STOMACH, LIVER, INTESTINES) “active; positive”; (Species: HAMSTER, Route: ORAL, Tumor Site: Type of Lesion: BLOOD VESSELS, INTESTINES, LIVER, Tumor Site: Type of Lesion: BLOOD VESSELS, INTESTINES, LIVER) “active; positive”; (Species: MONKEY, Strain/Sex: CEBUS APELLA/MALE, Route: SUBCUTANEOUS, Dose: 0, 25 MG/KG BW 1/WK FOR 16 WK (STUDY DURATION: 20 MO)) “inactive; negative”; (Species: MOUSE, Route: ORAL, Tumor Site: Type of Lesion: LUNG, BLOOD VESSELS) “active; positive”; (Species: MOUSE, Route: SUBCUTANEOUS, Tumor Site: Type of Lesion: COLON, INTESTINES) “active; positive”; (Species: RAT, Route: ORAL, Tumor Site: Type of Lesion: INTESTINES, LIVER) “active; positive”. In addition, the carcinogen call by setting is: (Species: RAT, Route: SUBCUTANEOUS, Tumor Site: Type of Lesion: COLON, INTESTINES, LIVER, Tumor Site: Type of Lesion: COLON, INTESTINES, LIVER) “active; positive”; (Species: RAT, Strain/Sex: WISTAR/FEMALE, Route: SUBCUTANEOUS, Dose: 0, 200 MG/KG BW ONCE (STUDY DURATION: 1 YR), Tumor Site: Type of Lesion: KIDNEY: TUMOR) “active; positive”; (Species: RAT, Strain/Sex: WISTAR/MALE, Route: SUBCUTANEOUS, Dose: 30 MG/KG IN NACL-EDTA 1/WK FOR 10 OR 15 WK, Tumor Site: Type of Lesion: INTESTINES: CARCINOMA (INVASIVE, INCLUDING MUCIN AND NONMUCIN PRODUCING), CARCINOMA (NONINVASIVE)) “active; positive”.
Turning to `O=[N+]([O-])O`, for the setting “Species: RAT, Strain/Sex: F344/MALE,FEMALE, Route: ORAL, Dose: 2.5, 5% IN DRINKING WATER FOR 2 YR”, the carcinogen call was “inactive; negative”.
Consider `CC(C)OS(C)(=O)=O`, for which the carcinogen call (Species: MOUSE, Strain/Sex: ICR/FEMALE, Route: SUBCUTANEOUS, Dose: 0, 10 UMOL/MOUSE IN TRIOCTANOIN INTO LEFT FLANK, 1/WK FOR 139 D (STUDY DURATION: 139 D), Tumor Site: Type of Lesion: THYMUS GLAND: LYMPHOMA) is “active; positive”.
On to `CC/C(C)=N\O`, for which the carcinogen call was “inactive; negative” (Species: MOUSE, Strain/Sex: CD-1/FEMALE, Route: INHALATION, Dose: 0, 15, 75, 374 PPM 6 HR/D 5 D/WK FOR 26 MO (STUDY DURATION: 26 MO), Dose: 0, 15, 75, 374 PPM 6 HR/D 5 D/WK FOR 26 MO (STUDY DURATION: 26 MO)); “active; positive” (Species: MOUSE, Strain/Sex: CD-1/MALE, Route: INHALATION, Dose: 0, 15, 75, 374 PPM 6 HR/D 5 D/WK FOR 26 MO (STUDY DURATION: 26 MO), Dose: 0, 15, 75, 374 PPM 6 HR/D 5 D/WK FOR 26 MO (STUDY DURATION: 26 MO), Tumor Site: Type of Lesion: LIVER: CARCINOMA, ADENOMA OR CARCINOMA); “inactive; negative” (Species: RAT, Strain/Sex: F344/FEMALE, Route: INHALATION, Dose: 0, 15, 75, 374 PPM 6 HR/D 5 D/WK FOR 26 MO (STUDY DURATION: 26 MO), Dose: 0, 15, 75, 374 PPM 6 HR/D 5 D/WK FOR 26 MO (STUDY DURATION: 26 MO)); “active; positive” (Species: RAT, Strain/Sex: F344/MALE, Route: INHALATION, Dose: 0, 15, 75, 374 PPM 6 HR/D 5 D/WK FOR 26 MO (STUDY DURATION: 26 MO), Dose: 0, 15, 75, 374 PPM 6 HR/D 5 D/WK FOR 26 MO (STUDY DURATION: 26 MO), Tumor Site: Type of Lesion: LIVER: ADENOMA, CARCINOMA, ADENOMA OR CARCINOMA).
Take `O=C(O)C(Cl)Br` (stereo unspecified): the carcinogen call (Species: Mouse, Strain/Sex: B6C3F1 / Female (50/Group), Route: Oral, Dose: 0, 250, 500, 1,000 mg/l in drinking water for 105 wk, Dose: 0, 250, 500, 1,000 mg/l in drinking water for 105 wk, Tumor Site: Type of Lesion: Liver: hepatocellular neoplasms) is “active; positive. authors describe as clear evidence”; the carcinogen call (Species: Mouse, Strain/Sex: B6C3F1 / Male (50/Group), Route: Oral, Dose: 0, 250, 500, 1,000 mg/l in drinking water for 105 wk, Dose: 0, 250, 500, 1,000 mg/l in drinking water for 105 wk, Tumor Site: Type of Lesion: Liver: hepatocellular neoplasms and hepatoblastoma) is “active; positive. authors describe as clear evidence”; the carcinogen call (Species: Rat, Strain/Sex: F344/N / Female (50/Group), Route: Oral, Dose: 0, 250, 500, 1,000 mg/l in drinking water for 105 wk, Dose: 0, 250, 500, 1,000 mg/l in drinking water for 105 wk, Tumor Site: Type of Lesion: Large Intestine: adenoma, Mammary Gland: multiple fibroadenomas, Pancreatic Islet: adenoma (may have been related), Tumor Site: Type of Lesion: Large Intestine: adenoma, Mammary Gland: multiple fibroadenomas, Pancreatic Islet: adenoma (may have been related)) is “active; positive (some of the p values do not reach significance.) authors describe as c”; the carcinogen call (Species: Rat, Strain/Sex: F344/N / Male (50/Group), Route: Oral, Dose: 0, 250, 500, 1,000 mg/l in drinking water for 105 wk, Dose: 0, 250, 500, 1,000 mg/l in drinking water for 105 wk, Tumor Site: Type of Lesion: Mesothelium: malignant mesothelioma, Large Intestine: adenoma, Pancreatic Islet: adenoma (may have been related), Tumor Site: Type of Lesion: Mesothelium: malignant mesothelioma, Large Intestine: adenoma, Pancreatic Islet: adenoma (may have been related)) is “active; positive. authors describe as clear evidence”.
Regarding `O=C1NC(=O)C(=O)C(=O)N1`, the carcinogen call runs as follows: (Species: Rat, Strain/Sex: WBN/Kob (Diabetic)/Female (17/group), Route: Intravenous, Dose: 0, 40 mg/kg once, study duration 75 wks, Tumor Site: Type of Lesion: Forestomach: squamous cell carcinoma) “active; positive”; (Species: Rat, Strain/Sex: WBN/Kob (Diabetic)/Male (31/ group), Route: Intravenous, Dose: 0, 50 mg/kg once, study duration 75 wks, Tumor Site: Type of Lesion: Forestomach: squamous cell carcinoma) “active; positive”.
